Source: patent US6887889B2 (Pharmacopeia Drug Discovery, Inc., priority 2001, dated 2005)

Target: T1, hMCHR (Homo sapiens, UniProt Q99705)
T1 construct: host or cells: CHO (Chinese hamster ovary) cells, membranes
Test: MCH Assay PCOP Protocol: [125I]-MCH binding to hMCHR-CHO membranes, WGA-SPA beads
Conditions: hMCHR-CHO overexpressing membranes, 0.5 nM [125I]-MCH, 2 hours incubation
Description: A reaction mixture of 10 μg hMCHR-CHO overexpressing membranes (from Receptor Biology, Inc., Beltville, Md., or internally produced) and 100 μg/well WGA-SPA beads (from Amersham Pharmacia Biotech, Inc., Piscataway, N.J.)/100 μL was prepared in MCHR assay buffer (25 mM HEPES, pH 7.4, 10 mM NaCl, 10 mM MgCl2, 5 mM MnCl2, 0.1%BSA). […] The assay plates were shaken for 5 minutes on a plate shaker, then incubated for 2 hours before cpm/well were determined in a Microbeta Trilux counter (from Perkin Elmer Wallac, Inc., Gaithersburg, Md.).

T1 sequence (Q99705 whole entry): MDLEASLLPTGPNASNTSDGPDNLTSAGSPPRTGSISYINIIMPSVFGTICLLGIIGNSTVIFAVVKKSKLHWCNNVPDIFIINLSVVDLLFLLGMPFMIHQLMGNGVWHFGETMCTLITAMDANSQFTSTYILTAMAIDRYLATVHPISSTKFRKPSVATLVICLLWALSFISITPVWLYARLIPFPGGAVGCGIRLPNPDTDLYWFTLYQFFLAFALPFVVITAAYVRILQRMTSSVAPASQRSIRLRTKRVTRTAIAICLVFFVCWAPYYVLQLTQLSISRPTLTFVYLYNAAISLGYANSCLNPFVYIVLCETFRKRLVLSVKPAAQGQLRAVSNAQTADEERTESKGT

First: 3-Chloro-N-[4-(3′-cyano-biphenyl-4-yl)-1-cyclopropylmethyl-piperidin-4-ylmethyl]-4-fluoro-benzenesulfonamide [Example 11]
Second: CC(C)CN1CCC(CNC(=O)Nc2cc(Cl)cc(Cl)c2)(c2ccc(-c3cccc(C#N)c3)cc2)CC1 [Example 7, 1-[4-(3′-Cyano-biphenyl-4-yl)-1-isobutyl-piperidin-4-ylmethyl]-3-(3,5-dichloro-phenyl)-urea]
The Ki of the first is higher: 101 to 5500 nM for the first, 11 to 100 nM for the second.

First: CN1CCC(CNC(=O)Nc2ccc(F)cc2F)(c2ccc(-c3cccc(C#N)c3)cc2)CC1 [Example 9, 1-[4-(3′-Cyano-biphenyl-4-yl)-1-methyl-piperidin-4-ylmethyl]-3-(2,4-difluoro-phenyl)-urea]
Second: N#Cc1cccc(-c2ccc(C3(CNC(=O)Cc4cc(F)cc(F)c4)CCN(CC4CC4)CC3)cc2)c1 [Example 10, N-[4-(3′-Cyano-biphenyl-4-yl)-1-cyclopropylmethyl-piperidin-4-ylmethyl]-2-(3.5-difluoro-phenyl)-acetamide]
The Ki of the first is lower: 0.2 to 10 nM for the first, 101 to 5500 nM for the second. The first binds more tightly here.

Compared with `CC(C)COC(=O)NCC1(c2ccc(-c3cccc(C#N)c3)cc2)CCN(CC2CC2)CC1` [Example 12, [4-(3′-Cyano-biphenyl-4-yl)-1-cyclopropylmethyl-piperidin-4-ylmethyl]-carbamic acid isobutyl ester], `CN1CCC(CN2CCN(c3ccc(F)c(F)c3)C2=O)(c2ccc(-c3cccc(C#N)c3)cc2)CC1` [Example 13] is lower in Ki: 101 to 5500 nM for the first, 11 to 100 nM for the second. The second binds more tightly here.

First: CN(CC1(c2ccc(-c3cccc(C#N)c3)cc2)CCN(CC2CC2)CC1)C(=O)Nc1cc(Cl)cc(Cl)c1 [Example 14, 1-[4-(3′-Cyano-biphenyl-4-yl)-1-cyclopropylmethyl-piperidin-4-ylmethyl]-3-(3,5-dichloro-phenyl)-1-methyl-urea]
Second: CN1CCC(C(=O)Nc2cc(Cl)cc(Cl)c2)(c2ccc(-c3cccc(C#N)c3)cc2)CC1 [Example 15, 4-(3′-Cyano-biphenyl-4-yl)-1-methyl-piperidine-4-carboxylic acid (3.5-dichloro-phenyl)-amide]
The Ki of the first is lower: 0.2 to 10 nM for the first, 101 to 5500 nM for the second. The first binds more tightly here.

`CN1CCC(C(=O)NCc2cc(Cl)cc(Cl)c2)(c2ccc(-c3cccc(C#N)c3)cc2)CC1` [Example 16, 4-(3′-Cyano-biphenyl-4-yl)-1-methyl-piperidine-4-carboxylic acid 3,5-dichloro-benzylamide] and `CN1CCC2(CC1)CN(C(=O)Nc1ccc(F)c(Cl)c1)c1cc(-c3cccc(C#N)c3)ccc12` [Example 17, 1-(3-Chloro-4-fluorophenyl)ureido-6-(3-cyanophenyl)-1′-methyl-spiro[indoline-3,4′-piperidine]] fall in the same range of Ki: 101 to 5500 nM for the first, 101 to 5500 nM for the second.

First: O=C(NCC1(c2ccc(-c3cccnc3)cc2)CCN(C2CCCC2)CC1)Nc1cc(Cl)cc(Cl)c1 [Example 20]
Second: Cc1ccc(C2(CNC(=O)Nc3cc(Cl)cc(Cl)c3)CCNCC2)cc1 [Example 23]
The Ki of the first is lower: 0.2 to 10 nM for the first, 101 to 5500 nM for the second.

`CN1CCC(CNC(=O)Nc2cc(Cl)cc(Cl)c2)(c2cccc(Cl)c2)CC1` [Example 24] and `Cc1ccc(C2(CNC(=O)Nc3cc(Cl)cc(Cl)c3)CCN(CC3CC3)CC2)cc1` [Example 25] fall in the same range of Ki: 101 to 5500 nM for the first, 101 to 5500 nM for the second.

`Cc1ccc(C2(CNC(=O)Nc3cc(Cl)cc(Cl)c3)CCN(C3CCCC3)CC2)cc1` [Example 26] and `CCCN1CCC(CNC(=O)Nc2cc(Cl)cc(Cl)c2)(c2ccc(C)cc2)CC1` [Example 27] fall in the same range of Ki: 101 to 5500 nM for the first, 101 to 5500 nM for the second.

`CN1CCC(CNC(=O)Nc2ccc(F)c(F)c2)(c2ccc(-c3cccnc3)cc2)CC1` [Example 30] and `CN(C)S(=O)(=O)N1CCC(CNC(=O)Nc2cc(Cl)cc(Cl)c2)(c2ccc(-c3cccc(C#N)c3)cc2)CC1` [Example 31] fall in the same range of Ki: 11 to 100 nM for the first, 11 to 100 nM for the second.

First: COCCN1CCC(CNC(=O)Nc2cc(Cl)cc(Cl)c2)(c2ccc(-c3ccc4c(c3)OCO4)cc2)CC1 [Example 33]
Second: COCCN1CCC(CNC(=O)Nc2cc(Cl)cc(Cl)c2)(c2ccc(-c3cccc(Cl)c3)cc2)CC1 [Example 35]
The Ki of the first is higher: 11 to 100 nM for the first, 0.2 to 10 nM for the second.

`CN1CCC(CNC(=O)Nc2ccc(Cl)cc2Cl)(c2ccc(-c3cccc(C#N)c3)cc2)CC1` [Example 36] and `CN1CCC2(CC1)CN(C(=O)Nc1cc(Cl)cc(Cl)c1)c1ccc(-c3cccc(C#N)c3)cc12` [Example 37] fall in the same range of Ki: 11 to 100 nM for the first, 11 to 100 nM for the second.

First: CN1CCC(CN(C)C(=O)Nc2cc(Cl)cc(Cl)c2)(c2ccc(-c3cccc(C#N)c3)cc2)CC1 [Example 38]
Second: CN1CCC(CNC(=O)Nc2cc(Cl)cc(Cl)c2)(c2ccc(-c3cc4ccccc4o3)cc2)CC1 [Example 40]
The Ki of the first is lower: 0.2 to 10 nM for the first, 101 to 5500 nM for the second. The first binds more tightly here.

First: CN1CCC(CNC(=O)Nc2cc(Cl)cc(Cl)c2)(c2ccc(-c3cccc(N)c3)cc2)CC1 [Example 41]
Second: CN1CCC(CNC(=O)Nc2cc(Cl)cc(Cl)c2)(c2ccc(-c3ccc4c(c3)OCO4)cc2)CC1 [Example 43]
The Ki of the first is higher: 11 to 100 nM for the first, 0.2 to 10 nM for the second. The second binds more tightly here.

Compared with `COc1ccc(-c2ccc(C3(CNC(=O)Nc4cc(Cl)cc(Cl)c4)CCN(C)CC3)cc2)cn1` [Example 44], `CCCN1CCC2(CC1)CN(C(=O)Nc1ccc(Cl)c(Cl)c1)c1ccc(-c3cccc(C#N)c3)cc12` [Example 45] is higher in Ki: 11 to 100 nM for the first, 101 to 5500 nM for the second. The first binds more tightly here.

First: CCCN1CCC2(CC1)CN(C(=O)Nc1ccc(F)c(Cl)c1)c1ccc(-c3cccc(C#N)c3)cc12 [Example 46]
Second: CCCN1CCC(CNC(=O)Nc2ccc(Cl)cc2C(F)(F)F)(c2ccc(-c3cccc(C#N)c3)cc2)CC1 [Example 47]
The Ki of the first is higher: 101 to 5500 nM for the first, 11 to 100 nM for the second. The second binds more tightly here.

Compared with `O=C(NCC1(c2ccc(-c3cccc(Cl)c3)cc2)CCN(CC2CC2)CC1)Nc1ccc(Cl)cc1C(F)(F)F` [Example 48], `O=C(NCC1(c2ccc(-c3cccc(Cl)c3)cc2)CCN(CC2CC2)CC1)Nc1ccc(F)c(Cl)c1` [Example 49] is lower in Ki: 101 to 5500 nM for the first, 0.2 to 10 nM for the second. The second binds more tightly here.

`N#Cc1cccc(-c2ccc(C3(CNC(=O)Nc4ccc(Cl)c(C(F)(F)F)c4)CCN(CC4CC4)CC3)cc2)c1` [Example 50] and `CN1CCC(CNC(=O)Nc2ccc(Cl)c(C(F)(F)F)c2)(c2ccc(-c3cccc(Cl)c3)cc2)CC1` [Example 51] fall in the same range of Ki: 0.2 to 10 nM for the first, 0.2 to 10 nM for the second.

Compared with `CCCN1CCC(CNC(=O)Nc2ccc(Cl)cc2C(F)(F)F)(c2ccc(-c3cccc(Cl)c3)cc2)CC1` [Example 52], `CN1CCC(CNC(=O)Nc2cc(F)cc(F)c2)(c2ccc(-c3cccc(Cl)c3)cc2)CC1` [Example 55] is lower in Ki: 101 to 5500 nM for the first, 0.2 to 10 nM for the second. The second binds more tightly here.

First: CN1CCC(CNC(=O)Nc2cc(C(F)(F)F)ccc2Cl)(c2ccc(-c3cccc(Cl)c3)cc2)CC1 [Example 57]
Second: CCCN1CCC(CNC(=O)Nc2cc(C(F)(F)F)ccc2Cl)(c2ccc(-c3cccc(Cl)c3)cc2)CC1 [Example 58]
The Ki of the first is lower: 11 to 100 nM for the first, 101 to 5500 nM for the second. The first binds more tightly here.

`CN1CCC(CNC(=O)Nc2ccc(Cl)cc2C(F)(F)F)(c2ccc(-c3cccc(Cl)c3)cc2)CC1` [Example 59] and `N#Cc1cccc(-c2ccc(C3(CNC(=O)Nc4ccc(Cl)cc4C(F)(F)F)CCN(CC4CC4)CC3)cc2)c1` [Example 60] fall in the same range of Ki: 101 to 5500 nM for the first, 101 to 5500 nM for the second.

Compared with `O=C(NCC1(c2ccc(-c3cccc(Cl)c3)cc2)CCN(CC2CC2)CC1)Nc1ccc(Cl)c(C(F)(F)F)c1` [Example 61], `CN1CCC(CNC(=O)Nc2ccccc2)(c2ccc(-c3cccc(Cl)c3)cc2)CC1` [Example 62] is lower in Ki: 11 to 100 nM for the first, 0.2 to 10 nM for the second. The second binds more tightly here.

`CCCN1CCC(CNC(=O)Nc2cc(C(F)(F)F)ccc2Cl)(c2ccc(-c3cccc(C#N)c3)cc2)CC1` [Example 63] and `CCCN1CCC(CNC(=O)Nc2ccc(Cl)c(C(F)(F)F)c2)(c2ccc(-c3cccc(Cl)c3)cc2)CC1` [Example 64] fall in the same range of Ki: 11 to 100 nM for the first, 11 to 100 nM for the second.

First: CCCN1CCC(CNC(=O)Nc2ccc(F)c(Cl)c2)(c2ccc(-c3cccc(C#N)c3)cc2)CC1 [Example 65]
Second: CN1CCC(CNC(=O)Nc2ccc(Cl)cc2C(F)(F)F)(c2ccc(-c3cccc(C#N)c3)cc2)CC1 [Example 67]
The Ki of the first is lower: 0.2 to 10 nM for the first, 101 to 5500 nM for the second. The first binds more tightly here.

`N#Cc1cccc(-c2ccc(C3(CNC(=O)Nc4cc(C(F)(F)F)ccc4Cl)CCN(CC4CC4)CC3)cc2)c1` [Example 68] and `CN1CCC(CNC(=O)Nc2cc(C(F)(F)F)ccc2Cl)(c2ccc(-c3cccc(C#N)c3)cc2)CC1` [Example 69] fall in the same range of Ki: 11 to 100 nM for the first, 11 to 100 nM for the second.

`O=C(NCC1(c2ccc(-c3cccc(Cl)c3)cc2)CCN(CC2CC2)CC1)Nc1cc(Cl)cc(Cl)c1` [Example 70] and `CCCN1CCC(CNC(=O)Nc2ccc(Cl)c(C(F)(F)F)c2)(c2ccc(-c3cccc(C#N)c3)cc2)CC1` [Example 71] fall in the same range of Ki: 0.2 to 10 nM for the first, 0.2 to 10 nM for the second.

`CN1CCC(CNC(=O)c2cc(Cl)cc(Cl)c2)(c2ccc(-c3cccc(Cl)c3)cc2)CC1` [Example 72] and `O=C(NCC1(c2ccc(-c3cccc(Cl)c3)cc2)CCN(CC2CC2)CC1)Nc1cc(C(F)(F)F)ccc1Cl` [Example 73] fall in the same range of Ki: 101 to 5500 nM for the first, 101 to 5500 nM for the second.

First: CCCN1CCC(CNC(=O)Nc2cc(Cl)cc(Cl)c2)(c2ccc(-c3cccc(Cl)c3)cc2)CC1 [Example 74]
Second: CN1CCC2(CC1)CN(C(=O)Nc1ccc(F)c(Cl)c1)c1cccc(-c3cccc(C#N)c3)c12 [Example 75]
The Ki of the first is lower: 0.2 to 10 nM for the first, 101 to 5500 nM for the second.

First: O=C(NCC1(c2ccc(-c3cccc(Cl)c3)cc2)CCN(C2CCCC2)CC1)Nc1cc(Cl)cc(Cl)c1 [Example 77]
Second: CN1CCC(CNC(=O)Nc2cc(Cl)cc(Cl)c2)(c2ccc(-c3ccc4[nH]ccc4c3)cc2)CC1 [Example 78]
The Ki of the first is lower: 0.2 to 10 nM for the first, 101 to 5500 nM for the second. The first binds more tightly here.

First: CC(=O)Nc1cccc(-c2ccc(C3(CNC(=O)Nc4cc(Cl)cc(Cl)c4)CCN(C(C)C)CC3)cc2)c1 [Example 79]
Second: CC(=O)c1cccc(-c2ccc(C3(CNC(=O)Nc4cc(Cl)cc(Cl)c4)CCN(C(C)C)CC3)cc2)c1 [Example 80]
The Ki of the first is lower: 0.2 to 10 nM for the first, 11 to 100 nM for the second.

`O=C(NCC1(c2ccc(-c3ccc4c(c3)OCO4)cc2)CCN(C2CCCC2)CC1)Nc1cc(Cl)cc(Cl)c1` [Example 81] and `CC(C)N1CCC(CNC(=O)Nc2cc(Cl)cc(Cl)c2)(c2ccc(-c3ccc4c(c3)OCO4)cc2)CC1` [Example 82] fall in the same range of Ki: 0.2 to 10 nM for the first, 0.2 to 10 nM for the second.

With `CC(C)N1CCC(CNC(=O)Nc2cc(Cl)cc(Cl)c2)(c2ccc(-c3cccc(Cl)c3)cc2)CC1` [Example 83] the Ki was 0.2 to 10 nM.
